{
  "source": "patent US11839636B1",
  "about": "“Pharmaceutical composition based on plant raw materials: #2.1” (priority 2022, dated 2023)",
  "tested_on": "malondialdehyde (MDA)",
  "test": "In vitro study of antioxidant effect (FeSO4-activated malondialdehyde in blood serum)",
  "type": "biochemical",
  "conditions": "0.1 ml sample, 0.3 ml blood serum, FeSO4, 37° C. 15 min, MDA at 535 nm",
  "experimental": "Three samples were examined to evaluate antioxidant effectiveness. […] Method: evaluation was done by determining the intermediate product of the lipid oxidation process, malondialdehyde (MDA). Amount of MDA increases under the influence of ferrous sulfate (FeSO4), this moment was used as a model for the activated oxidation process. Sequence of analysis: 0.1 ml of test sample, 1 μmol of ferrous sulfate solution was added to 0.3 ml of blood serum and incubated at 37° C. for 15 min. Then 3 ml of 3% orthophosphoric acid and 1 ml of 0.6% thiobaric acid were added to the incubation mixture. The mixture was placed on a boiling water bath for one hour. Then 4 ml of butanol was added. The obtained mixture was centrifuged for 10 minutes at 3000 rpm. In the obtained supernatant, the optical density (E) was determined on a spectrometer on a wavelength of 535 nm. MDA concentration (C) was determined by the formula C=E×84.5 μmol/L. The difference between the background concentration of MDA and iron activated was 100%, while the antioxidant activity of the samples was conditionally expressed in %.",
  "data": [
    {"smiles": "O=C(O)CN(CCN(CC(=O)O)CC(=O)O)CC(=O)O", "note": "[Ethylenediaminetetraacetate]", "values": [
      {"measurement": "Relative Antioxidant Activity in %", "value": 92, "unit": "%"}
    ]}
  ]
}
